Where a name gives a salt, the structure may show the parent alone. Read-outs that look alike come from different tables or passages of the source. Where only a bound is given, the exact number is not on record here.

These results are taken from patent publication US10207984B2, “Cyclopropyl derivatives and methods of use” (Emory University, priority 2011, dated 2019).

Data set [1] addresses T1, norepinephrine transporters (NET) (Rattus norvegicus, UniProt Q9WTR4).
T1 construct: Whole rat brains (minus cerebellum) are homogenized; from tissue; host or cells: rat whole brain minus cerebellum, membranes
Put plainly: NET binding, displacement of [3H]nisoxetine in rat brain membranes. The settings on record: [3H]nisoxetine displacement, rat brain membranes; Ki by Cheng-Prusoff; read-out: NET. How it is done:
(§1) Binding of analogs at norepinephrine transporters (NET) was determined by displacement of [^3H]nisoxetine binding. […] The membranes are resuspended in nisoxetine assay buffer (300 mM NaCl, 5 mM KCl, 50 mM Tris-HCl, pH 7.4) and centrifuged again before final resuspension in volumes of buffer. Assay tubes contain 750 μl of brain membranes, [^3H]nisoxetine (0.7 nM) together with unlabeled drugs dissolved in nisoxetine assay buffer to a final volume of 1 ml. Tubes are incubated for 40 min at 25° C., and the reaction is terminated by rapid filtration with 3×4 mL of cold Tris buffer through Whatman GF/B glass fiber filters which have been pre-soaked in Tris buffer containing 0.1% BSA for at least 1 h. Non-specific binding is determined in the presence of 1 μM desipramine. In [^3H]citalopram and [^3H]nisoxetine binding assays, radioactivity is determined by liquid scintillation spectrophotometry (efficiency: 50%) after eluting filters overnight in 5 mL of Ecolite scintillation fluid (ICN). IC50 values are calculated from displacement curves using 7-10 concentrations of unlabeled analogs. […] For [^3H]paroxetine and [^3H]nisoxetine binding assays, Ki values are calculated using the Cheng-Prusoff equation.
On the technique in general: Loss of bound radioactivity is the signal in a displacement assay; it reports binding, not function.

Data set [2] addresses T2, dopamine transport (DAT) sites (Rattus norvegicus, UniProt P23977).
T2 construct: from tissue; host or cells: Sprague-Dawley rat striatum membranes
The data set is described as follows: DAT binding, displacement of [125I]RTI-55 in rat striatum membranes. How it is done: Frozen brains from Sprague-Dawley rats are obtained commercially and striata are dissected on ice. […] Tubes are incubated for 50 min at 25° C., and the reaction is terminated by rapid filtration with 3-5 ml of cold Tris buffer through Whatman GF/B glass fiber filters pre-soaked in Tris buffer containing 0.1% BSA for at least 1 h. Non-specific binding is determined in the presence of 1 μMWF-23. […]

The nature of another data set: Log-P (Table 1). Format: physicochemical.
The target in data set [3] is T3, 5-HT transport (SERT) sites (Rattus norvegicus, UniProt P31652).
T3 construct: Tissue is obtained from frozen rat brains as described above; from tissue; host or cells: rat frontal cortex membranes (frozen rat brains)
The data set is described as follows: SERT binding, displacement of [3H]citalopram in rat frontal cortex membranes. As to the method: Affinities of analogs at 5-HT transport (SERT) sites are determined by displacement of [^3H] citalopram binding in membranes from rat frontal cortex. […] Assay tubes contain 50 mg (original wet weight) of membranes, 0.4 nM [^3H]citalopram, and various concentrations of unlabeled drugs dissolved in citalopram assay buffer in a final volume of 2 ml. Tubes are incubated for 60 min at 25° C., and the reaction is terminated by rapid filtration with 3×4 mL of cold Tris buffer through Whatman GF/B glass fiber filters pre-soaked in Tris buffer containing 0.1% BSA for at least 1 h. Non-specific binding is determined in the presence of 10 μM fluoxetine.
as §1

[4] abbreviates: [125I]RTI-55 displacement, rat striatum membranes, reported as IC50, read-out: DAT.
Setting [5] is: [3H]citalopram displacement, rat frontal cortex membranes, Ki by Cheng-Prusoff, read-out: SERT.

T2 sequence (P23977 whole entry): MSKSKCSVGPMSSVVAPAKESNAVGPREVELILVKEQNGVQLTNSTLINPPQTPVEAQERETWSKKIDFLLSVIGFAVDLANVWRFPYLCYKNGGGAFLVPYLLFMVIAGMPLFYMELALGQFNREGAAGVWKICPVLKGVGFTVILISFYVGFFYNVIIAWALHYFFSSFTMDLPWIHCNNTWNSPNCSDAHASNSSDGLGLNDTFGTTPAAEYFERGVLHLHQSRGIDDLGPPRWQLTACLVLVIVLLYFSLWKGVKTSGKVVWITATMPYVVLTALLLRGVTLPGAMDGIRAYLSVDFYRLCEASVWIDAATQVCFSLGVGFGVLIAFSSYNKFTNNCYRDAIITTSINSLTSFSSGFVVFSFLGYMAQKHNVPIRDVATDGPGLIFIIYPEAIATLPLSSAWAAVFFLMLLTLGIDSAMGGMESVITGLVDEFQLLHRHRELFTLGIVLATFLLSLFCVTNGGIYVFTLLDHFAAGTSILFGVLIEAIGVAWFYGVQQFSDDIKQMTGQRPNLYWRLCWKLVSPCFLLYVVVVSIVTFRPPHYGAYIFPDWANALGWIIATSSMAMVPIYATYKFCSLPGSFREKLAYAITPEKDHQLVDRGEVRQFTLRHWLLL
T3 sequence (P31652 whole entry): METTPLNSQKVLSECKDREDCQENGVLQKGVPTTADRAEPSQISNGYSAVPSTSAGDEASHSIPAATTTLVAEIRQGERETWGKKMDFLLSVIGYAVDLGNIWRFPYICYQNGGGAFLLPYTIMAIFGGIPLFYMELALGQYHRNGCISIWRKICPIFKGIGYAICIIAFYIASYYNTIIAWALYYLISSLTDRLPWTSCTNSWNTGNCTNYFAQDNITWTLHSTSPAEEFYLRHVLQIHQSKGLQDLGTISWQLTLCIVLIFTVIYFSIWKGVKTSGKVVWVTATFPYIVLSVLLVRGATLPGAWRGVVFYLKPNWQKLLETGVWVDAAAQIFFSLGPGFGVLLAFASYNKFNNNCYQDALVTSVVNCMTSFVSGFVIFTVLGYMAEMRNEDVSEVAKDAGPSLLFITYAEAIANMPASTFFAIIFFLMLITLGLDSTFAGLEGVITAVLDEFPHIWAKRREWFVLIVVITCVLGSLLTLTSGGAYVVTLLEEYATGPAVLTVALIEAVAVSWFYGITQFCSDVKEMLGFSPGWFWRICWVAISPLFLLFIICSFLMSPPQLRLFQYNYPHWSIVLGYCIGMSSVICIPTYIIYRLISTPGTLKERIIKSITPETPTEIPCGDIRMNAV
T1 sequence (Q9WTR4 1-597): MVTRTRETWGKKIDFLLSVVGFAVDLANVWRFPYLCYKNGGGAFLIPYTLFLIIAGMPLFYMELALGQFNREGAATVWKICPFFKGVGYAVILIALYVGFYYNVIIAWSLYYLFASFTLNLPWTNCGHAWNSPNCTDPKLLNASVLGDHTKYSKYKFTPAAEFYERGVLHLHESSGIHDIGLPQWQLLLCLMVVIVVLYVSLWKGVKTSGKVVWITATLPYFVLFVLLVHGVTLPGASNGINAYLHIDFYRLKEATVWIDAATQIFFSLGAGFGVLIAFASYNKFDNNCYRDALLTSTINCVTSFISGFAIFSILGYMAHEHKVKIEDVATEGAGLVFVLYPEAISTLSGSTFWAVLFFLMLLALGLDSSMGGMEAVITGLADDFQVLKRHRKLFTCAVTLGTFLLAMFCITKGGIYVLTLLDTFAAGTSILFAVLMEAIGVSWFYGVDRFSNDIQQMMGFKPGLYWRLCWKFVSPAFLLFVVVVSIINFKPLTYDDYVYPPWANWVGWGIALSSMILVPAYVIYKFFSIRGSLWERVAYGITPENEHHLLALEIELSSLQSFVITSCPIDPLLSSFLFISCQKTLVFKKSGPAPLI

For `CNCC1CC1(C(=O)OC)c1ccccc1` (racemic) [HD-284, Methyl 2-((methylamino)methyl)-1-phenylcyclopropanecarboxylate], the Ki was 152 ± 65 nM in data set [1] and 157 ± 4.8 nM in data set [3] (setting [5]). In data set [2] (setting [4]), the IC50 was determined as 1780 ± 87 nM. In the data set “Log-P (Table 1)”, the Log-P is reported as 1.65.

As for `CNCC1CC1(C(=O)OC)c1ccc(Br)cc1` (racemic) [HD-285, Methyl 1-(4-bromophenyl)-2-((methylamino)methyl)cyclopropanecarboxylate], the Ki in data set [1] was 3.7 ± 1.4 nM; in data set [3] (setting [5]) it was 210 ± 10 nM. In data set [2] (setting [4]), the IC50 is 1460 ± 470 nM. The Log-P in the data set “Log-P (Table 1)” is 2.51.

In the case of `CNCC1CC1(C(=O)OC)c1ccc2ccccc2c1` (racemic) [HD-287, Methyl 2-((methylamino)methyl)-1-(naphthalen-2-yl)cyclopropanecarboxylate hydrochloride], the Ki in data set [1] was 3.49 ± 0.64 nM; in data set [3], 6.58 ± 0.71 nM. Further, the IC50 in data set [2] stood at 177 ± 44 nM. The Log-P in “Log-P (Table 1)” is 2.82.

For `CNCC1CC1(C(=O)OC)c1ccc(OC)c(OC)c1` (racemic) [HD-289, Methyl 1-(3,4-dimethoxyphenyl)-2-((methylamino)methyl)cyclopropanecarboxylate hydrochloride], the values for the Ki in data set [1] and in data set [3] (setting [5]) were 8.62 ± 0.71 nM and 106 ± 21 nM, respectively. Besides, the IC50 in data set [2] (setting [4]) is 1360 ± 198 nM. This molecule gave a Log-P in the data set “Log-P (Table 1)” of 1.31.

On to `CNCC1CC1(C(=O)OC)c1ccccc1Cl` (racemic) [HD-290, Methyl 1-(2-chlorophenyl)-2-((methylamino)methyl)cyclopropanecarboxylate], for which the Ki in data set [1] worked out at 289 ± 24 nM; in data set [3] (setting [5]), 329 ± 54 nM. In addition, the IC50 in data set [2] (setting [4]) was 1840 ± 350 nM. Also, in “Log-P (Table 1)”, the Log-P is reported as 2.36.

For `CNC[C@H]1C[C@@]1(C(=O)OC)c1ccc(Br)cc1` [HD-324, (1S,2S)-methyl 1-(4-bromophenyl)-2-((methylamino)methyl)cyclopropanecarboxylate], the results for the Ki in data set [1] and in data set [3] (setting [5]) were 44.9 ± 1 nM and 946 ± 71 nM, respectively. The IC50 in data set [2] (setting [4]) is more than 10000 nM. For the same molecule, the Log-P in the data set “Log-P (Table 1)” came to 2.51.

Take `CNC[C@@H]1C[C@]1(C(=O)OC)c1ccc(Br)cc1` [HD-325, (1R,2R)-methyl 1-(4-bromophenyl)-2-((methylamino)methyl)cyclopropanecarboxylate]: the Ki in data set [1] came to 2.49 ± 0.07 nM; in data set [3] (setting [5]), 47 ± 2.9 nM. For the same molecule, the IC50 in data set [2] (setting [4]) was 333 ± 79 nM. The Log-P in “Log-P (Table 1)” turned out to be 2.51.

As for `CNC[C@H]1C[C@@]1(C(=O)OC)c1ccc(Cl)c(Cl)c1` [HD-326, (1S,2S)-methyl 1-(3,4-dichlorophenyl)-2-((methylamino)methyl)cyclopropanecarboxylate], the Ki was 8.11 ± 0.8 nM in data set [1] and 40.5 ± 4.3 nM in data set [3] (setting [5]). Further, the Log-P in the data set “Log-P (Table 1)” was 2.95.

As to `CNC[C@@H]1C[C@]1(C(=O)OC)c1ccc(Cl)c(Cl)c1` [HD-327, (1R,2R)-methyl 1-(3,4-dichlorophenyl)-2-((methylamino)methyl)cyclopropanecarboxylate], the values for the Ki in data set [1] and in data set [3] (setting [5]) were 0.31 ± 0.01 nM and 2.42 ± 0.31 nM, respectively. In addition, the Log-P in the data set “Log-P (Table 1)” was found to be 2.95.

For the molecule `CNC[C@H]1C[C@@]1(C(=O)OC)c1ccc(Br)c(Br)c1` [HD-328, (1S,2S)-methyl 1-(3,4-dibromophenyl)-2-((methylamino)methyl)cyclopropanecarboxylate], the figures for the Ki in data set [1] and in data set [3] (setting [5]) were 4.57 ± 0.66 nM and 18.4 ± 2.5 nM, respectively. Also, the IC50 in data set [2] (setting [4]) came to 87.9 ± 9.5 nM. This molecule showed a Log-P in “Log-P (Table 1)” of 3.17.

Take `CNC[C@H]1C[C@@]1(C(=O)OC)c1ccc(-c2ccccc2)cc1` [HD-332, (1S,2S)-methyl 1-([1,1′-biphenyl]-4-yl)-2-((methylamino)methyl)cyclopropanecarboxylate]: the Ki in data set [1] is more than 10000 nM; in data set [3] (setting [5]) it was 79.8 ± 21 nM. In “Log-P (Table 1)”, the Log-P is 3.54.

Turning to `CNC[C@@H]1C[C@]1(C(=O)OC)c1ccc(-c2ccccc2)cc1` [HD-333, (1R,2R)-methyl 1-([1,1′-biphenyl]-4-yl)-2-((methylamino)methyl)cyclopropanecarboxylate], the Ki in data set [1] is 86.6 ± 19 nM; in data set [3] (setting [5]), 2.69 ± 0.62 nM. In the data set “Log-P (Table 1)”, this molecule registered a Log-P of 3.54.
